Assays:
Type in all cases: cell-based
[1] = tested on: HCT116 (KRAS G13D mutant type); test: In vitro growth inhibition (GI50), HCT116; details: Homo sapiens, HCT-116
Excerpt: (§1) Tumor cell line is an effective cell model for studying the inhibition of tumor cell growth or proliferation in vitro. In the present invention, a representative tumor cell line was selected to determine the cell growth inhibition activity of the present compound. All cell lines used were from ATCC, DSMZ, and the Cell Bank of the Chinese Academy of Sciences. Cell culture conditions and methods were in accordance with the requirements of each cell line. Cells were subcultured in vitro for no more than 3 passages each time, and as required, single-clone purification and identification of cell lines could be carried out.
(§2) The cell culture media used were RPMI1640 (Gibco), MEM (Gibco), McCOY'S5A (Gibco), and IMDM (Gibco). The complete medium was prepared by supplement with 5˜20% fetal calf serum (Gibco), 1% double-antibiotics (10000 units/mL penicillin and 10000 units/mL), 2 mM glutamine or 1 mM sodium pyruvate, respectively.
Human large cell lung cancer cell NCI-H460 (KRAS […] mutant type, ATCC), human non-small cell lung cancer cell line H1299 (NRAS Q61K mutant type, ATCC), human melanoma cell line A375 (BRAF V600E mutant type, Shanghai Cell Bank of Chinese Academy of Sciences), human colon cancer cell line HCT116 (KRAS G13D mutant type, Shanghai Cell Bank, Chinese Academy of Sciences) were cultured in a complete medium of 1×RPMI1640 (10% FBS), respectively. Human non-small cell lung cancer cells A549 (KRAS G12S mutant type, Shanghai Cell Bank, Chinese Academy of Sciences) were cultured in a complete medium of 1× Ham's supplemented with 10% FBS, 1% double antibody, and 2 mM glutamine.
(§3) Adherent cells were digested with 0.25% pancreatin-EDTA (Gibco). The suspension cells were collected by centrifugation. The supernatant was discarded and the cell pellet was resuspended and counted. Different cell concentrations (5˜10×10^4 cells/mL) were prepared according to the growth cycle of each cell line and then seeded on a 96-well plate (Corning), 100 μL/well. The cells were incubated overnight at 37° C., 5% CO2. The compounds were added to the cells on the second day with 2 wells in parallel. The final concentration of organic solvent shall not exceed 1%. The cells were continually incubated for 3 to 5 days, and then subjected to MTT assay.
(§4) The compound of the present invention and the control compound were dissolved in DMSO (Sigma) respectively, with the purity of more than 98%. The compound was stored in a concentration of 10 mM at −20° C. and diluted to 2- or 10-fold series prior to use.
(§5) Dojindo CCK8 reagent kit was used as MTT assay. THERMO […] FC meter was used as microplate reader.
(§6) For adherent cells, culture medium was removed and immediately replaced with the fresh prepared medium which contains 10% CCK8 reagent (100 μL/well). For the suspension cells, CCK8 was directly added to 10% of the final concentration. The cells were continually incubated for 1˜4 h. When a dark yellow color could be observed in the solvent control wells, the absorbance value at OD450 nm was measured and the cell growth rate was calculated according to the following formula: Cell Growth Rate (%)=100*(T−T0)/(C−T0) T=optical density of drug treatment cell well—optical density of blank control well; T0=optical density of cell well before drug treatment—optical density of blank control well; C=optical density of cell well of solvent control group—optical density of blank control well. The concentration value of 50% inhibition of cell growth (GI50) was calculated according to the drug concentration and cell growth rate curve. The experiment was independently repeated 1˜3 times, and subject to biological statistical analysis. 4. Experimental Results
(§7) Tumor cell growth inhibition test was performed by selecting representative compounds (compounds 4, 11, 12, 16, 27, 68, 71, 77, 79, 89 and 116 of the present invention). The initial concentration of the compound was 5,000 nM, then it was serially diluted by 2-fold or 10-fold to 0.01 nM. […]

[2] = tested on: NCI-H1975 (EGFR L858R/T790M); test: In vitro growth inhibition (GI50), NCI-H1975; details: Homo sapiens
Excerpt: as §1, §2
Human epidermal cancer cell line A431 (EGFR WT, amplification and high expression, from Shanghai Cell Bank of Chinese Academy of Sciences and ATCC), human lung cancer cell line NCI-H292 (EGFR WT, purchased from Shanghai Cell Bank of Chinese Academy of Sciences), NSCLC cell lines PC-9 and HCC827 (EGFR exon19 E746-A750 deletion, two cell lines are sensitive to the first-generation EGFR PTK inhibitor), NSCLC cell line NCI-H1975 (EGFR L858R/T790M and the first-generation EGFR inhibitor resistance, ATCC) were cultured with 1×RPMI1640 complete medium (supplement with 10% FBS), respectively.
as §3, §4, §5, §6
as §7, with “nM. The GI50 value of each test compound was calculated according to the GI50 assay and calculation method.” for “nM.”

[3] = tested on: HL-60 (FLT3 wild type); test: In vitro growth inhibition (GI50), HL-60; details: Homo sapiens, Cell lines of leukemia, read-out: GI 50 HL60 FLT3 (WT)
How it was run: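 Cells in RPMI1640 with 10% FBS, seeded at 5–10×10^4 cells/mL, exposed next day to compound at 5,000 nM down to 0.01 nM (2- or 10-fold dilutions, ≤1% solvent) for 3–5 days at 37 °C. CCK8 absorbance at 450 nm, growth rate relative to pre-treatment and solvent controls, GI50 from concentration–growth curve.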

Row | Structure (SMILES) | GI50 [1] | GI50 [2] | GI50 [3]
1 | CC(C)(C)c1cc(NC(=O)Nc2ccc(-n3cnc4cc(O)ccc43)cc2)no1 [Compound 4, 1-(5-tert-butyl-isoxazol-3-yl)-3-[4-(5-hydroxy-benzimidazol-1-yl)-phenyl]-urea] | > 2500 nM | > 2500 nM | 100 to 1000 nM
2 | CC(C)(C)c1cc(NC(=O)Nc2ccc(-n3cnc4cc(OCCO)ccc43)cc2)no1 [Compound 11, 1-(5-tert-butyl-isoxazol-3-yl)-3-{4-[5-(2-hydroxy-ethoxyl)-benzimidazol-1-yl]-phenyl]-urea] | > 2500 nM | > 2500 nM | > 1000 nM
3 | CC(C)(C)c1cc(NC(=O)Nc2ccc(-n3cnc4cc(OCCN5CCOCC5)ccc43)cc2)no1 [Compound 16, 1-(5-tert-butyl-isoxazol-3-yl)-3-{4-[5-(2-morpholin-4-yl-ethoxyl)-benzimidazol-1-yl]-phenyl}-urea] | > 2500 nM | > 2500 nM | > 1000 nM
4 | CC(C)(C)c1cc(NC(=O)Nc2ccc(-n3cnc4ccc(OCCN5CCOCC5)cc43)cc2)no1 [Compound 27, 1-(5-tert-butyl-isoxazol-3-yl)-3-{4-[6-(2morpholin-4-yl-ethoxyl)-benzimidazol-1-yl]-phenyl}-urea] | > 2500 nM | > 2500 nM | 100 to 1000 nM
5 | CC(C)(C)c1cc(NC(=O)Nc2ccc(-n3cnc4ccccc43)cc2)[nH]n1 [Compound 68, 1-(4-benzimidazol-1-yl-phenyl)-3-(5-tert-butyl-2H-pyrazol-3-yl)-urea] | > 2500 nM | > 2500 nM | > 1000 nM
6 | COc1ccc2c(c1)ncn2-c1ccc(NC(=O)Nc2cc(C(C)(C)C)n[nH]2)cc1 [Compound 71, 1-(5-tert-butyl-2H-pyrazol-3-yl)-3-[4-(5-methoxyl-benzimidazol-1-yl)-phenyl]-urea] | > 2500 nM | > 2500 nM | > 1000 nM
7 | COCCOc1ccc2c(c1)ncn2-c1ccc(NC(=O)Nc2cc(C(C)(C)C)n[nH]2)cc1 [Compound 77, 1-(5-tert-butyl-2H-pyrazol-3-yl)-3-{4-[5-(2-methoxyl-ethoxyl)-benzimidazol-1-yl]-phenyl}-urea] | > 2500 nM | > 2500 nM | > 1000 nM
8 | CC(C)(C)c1cc(NC(=O)Nc2ccc(-n3cnc4cc(OCCO)ccc43)cc2)[nH]n1 [Compound 79, 1-(5-tert-butyl-2H-pyrazol-3-yl)-3-{4-[5-(2-hydroxy-ethoxyl)-benzimidazol-1-yl]-phenyl]urea] | > 2500 nM | > 2500 nM | > 1000 nM
9 | CC(C)(C)c1cc(NC(=O)Nc2ccc(-n3cnc4cc(OCCN5CCOCC5)ccc43)cc2)[nH]n1 [Compound 89, 1-(5-tert-butyl-2H-pyrazol-3-yl)-3-{4-[5-(2-morpholin-4-yl-ethoxyl)-benzimidazol-1-yl]-phenyl}-urea] | > 2500 nM | > 2500 nM | > 1000 nM
10 | CC(C)(C)c1cc(N)n(C(=O)Nc2ccc(-n3cnc4ccccc43)cc2)n1 [Compound 116, 5-amino-3-tert-butyl-pyrazol-1-carboxylic acid (4-benzimidazol-1-yl-phenyl)-amide] | > 2500 nM | > 2500 nM | > 1000 nM

From US10647680B2, “Urea compound, preparation method therefor and medical use thereof” (Ancureall Pharmaceutical (Shanghai) Co., Ltd., priority 2016, dated 2020)
